The values below come from ChEMBL document CHEMBL5136983, “How the structural properties of the indole derivatives are important in kinase targeted drug design?: A case study on tyrosine kinase inhibitors” (Bioorg Med Chem, 2022).

SMILES strings stand for the structures.

T1 sequence (P00533 whole entry): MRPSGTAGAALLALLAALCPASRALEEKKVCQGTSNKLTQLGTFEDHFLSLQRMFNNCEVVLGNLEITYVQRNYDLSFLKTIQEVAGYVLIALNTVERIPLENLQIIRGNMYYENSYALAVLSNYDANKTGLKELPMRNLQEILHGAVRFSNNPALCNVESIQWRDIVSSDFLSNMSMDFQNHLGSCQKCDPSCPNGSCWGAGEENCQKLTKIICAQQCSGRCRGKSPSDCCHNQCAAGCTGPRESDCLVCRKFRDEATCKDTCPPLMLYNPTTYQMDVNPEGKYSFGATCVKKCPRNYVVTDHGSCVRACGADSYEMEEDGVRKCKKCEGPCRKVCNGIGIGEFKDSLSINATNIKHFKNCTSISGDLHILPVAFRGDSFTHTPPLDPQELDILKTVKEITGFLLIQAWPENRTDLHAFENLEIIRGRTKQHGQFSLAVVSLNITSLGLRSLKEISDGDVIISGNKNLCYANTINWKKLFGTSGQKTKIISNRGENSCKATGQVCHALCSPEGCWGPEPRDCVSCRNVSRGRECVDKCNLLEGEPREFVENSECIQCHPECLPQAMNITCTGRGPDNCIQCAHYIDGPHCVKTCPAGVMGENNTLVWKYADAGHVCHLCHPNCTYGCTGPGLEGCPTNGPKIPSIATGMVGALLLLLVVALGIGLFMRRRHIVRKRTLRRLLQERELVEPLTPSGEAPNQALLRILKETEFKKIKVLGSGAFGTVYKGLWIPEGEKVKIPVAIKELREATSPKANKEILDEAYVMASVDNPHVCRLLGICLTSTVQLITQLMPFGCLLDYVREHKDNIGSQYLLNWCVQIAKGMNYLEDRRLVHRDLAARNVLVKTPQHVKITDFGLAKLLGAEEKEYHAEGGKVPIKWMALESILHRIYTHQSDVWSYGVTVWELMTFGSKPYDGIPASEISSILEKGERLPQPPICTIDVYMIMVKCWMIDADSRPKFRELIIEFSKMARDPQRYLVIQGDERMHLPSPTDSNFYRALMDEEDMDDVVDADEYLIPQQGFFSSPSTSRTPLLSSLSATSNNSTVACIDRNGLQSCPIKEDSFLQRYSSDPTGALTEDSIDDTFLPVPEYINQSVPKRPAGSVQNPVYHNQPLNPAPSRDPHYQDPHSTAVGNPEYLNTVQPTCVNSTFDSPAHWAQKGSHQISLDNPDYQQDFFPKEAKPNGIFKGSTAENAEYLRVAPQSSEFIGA

The subject of one data set is HeLa. In words: Antiproliferative activity against human HeLa cells assessed as cell growth inhibition. Type of data set: functional, cell-based.
Consider `CCn1c(C)c(C(=O)NCc2ccc(F)cc2)c2cc(OCC(=O)NCCOc3ccccc3OC)ccc21`, for which the IC50 (commonly the midpoint of a concentration-inhibition curve) turned out to be 6810 nM.

Another data set has as its target T1, Epidermal growth factor receptor (Homo sapiens, UniProt P00533). In words: Inhibition of EGFR in human A-431 cell membrane vesicles using phospholipase C-gamma-1 as substrate incubated for 10 mins by scintillation counter method. Type of data set: cell membranes, Membrane vesicle.
Consider `c1ccc2c(c1)[nH]c1c(NC3CCCCC3)ncnc12`, for which the IC50 was more than 10000 nM. Molecule `CN(C)CCNc1ncnc2c1[nH]c1ccccc12` returned an IC50 of more than 10000 nM.

Another data set deals with A549. As to the kind of experiment: Antiproliferative activity against human A549 cells assessed as cell growth inhibition. Type of data set: functional, cell-based.
As for `CCn1c(C)c(C(=O)NCc2ccc(F)cc2)c2cc(OCC(=O)NCCOc3ccccc3OC)ccc21`, the IC50 is 4990 nM.

The target of another data set is T2, Proto-oncogene tyrosine-protein kinase Src (Homo sapiens, UniProt P12931). In words: Inhibition of src (unknown origin).
T2 sequence (P12931 2-536 limits assumed): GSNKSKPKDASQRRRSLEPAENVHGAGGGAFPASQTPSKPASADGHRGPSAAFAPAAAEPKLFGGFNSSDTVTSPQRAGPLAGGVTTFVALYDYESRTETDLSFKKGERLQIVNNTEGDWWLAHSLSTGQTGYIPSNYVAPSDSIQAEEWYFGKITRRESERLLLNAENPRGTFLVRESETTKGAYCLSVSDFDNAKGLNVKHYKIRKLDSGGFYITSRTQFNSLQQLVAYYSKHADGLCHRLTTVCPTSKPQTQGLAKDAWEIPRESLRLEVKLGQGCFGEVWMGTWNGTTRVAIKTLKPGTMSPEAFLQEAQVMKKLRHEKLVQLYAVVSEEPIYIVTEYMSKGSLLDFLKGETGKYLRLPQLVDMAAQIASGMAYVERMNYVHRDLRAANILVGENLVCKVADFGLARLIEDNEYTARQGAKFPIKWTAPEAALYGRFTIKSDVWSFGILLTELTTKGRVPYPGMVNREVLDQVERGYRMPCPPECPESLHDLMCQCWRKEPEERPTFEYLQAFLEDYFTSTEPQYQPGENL
Consider `O=C1/C(=N\c2ccc(Cl)cc2)c2ccccc2N1Cc1ccccc1`, for which it took 106000 nM to reach half-maximal inhibition (IC50).

For a further data set, the target named is T2, Proto-oncogene tyrosine-protein kinase Src. As to the kind of experiment: Inhibition of p60 c-src (unknown origin).
Molecule `O=C(OCCN1CCCCC1)c1cc2ccccc2n1Cc1ccccc1` had an IC50 of 1340 nM.

In another data set the test system is SW480. In words: Antiproliferative activity against human SW480 cells assessed as cell growth inhibition. Type of data set: functional, cell-based.
`CCn1c(C)c(C(=O)NCc2ccc(F)cc2)c2cc(OCC(=O)NCCOc3ccccc3OC)ccc21`: the IC50 was found to be 13100 nM.

Test system in another data set: not listed separately
As to the kind of experiment: Inhibition of PDGFR (unknown origin). The arrangement: species or system Homo sapiens.
`COc1ccccc1-c1nc2c(c3c1[nH]c1ccc(O)cc13)C(=O)NC2=O` yielded an IC50 of 10000 nM. Still for that read-out and setting: under `O=C1NC(=O)c2c1nc(-c1ccccc1)c1[nH]c3ccccc3c21` stands more than 30000 nM. The molecule `Cc1ccccc1-c1nc2c(c3c1[nH]c1ccc(O)cc13)C(=O)NC2=O` showed a concentration for half-maximal inhibition (IC50) of more than 30000 nM. Same read-out and setting: the figure for `COc1ccc2[nH]c3c(-c4ccccc4)nc4c(c3c2c1)C(=O)N(C)C4=O` is more than 30000 nM; for `COc1ccccc1-c1nc2c(c3c1[nH]c1ccc(OCc4ccccc4)cc13)C(=O)NC2=O` it is more than 30000 nM. Regarding `Cc1ccccc1-c1nc2c(c3c1[nH]c1ccc(OCc4ccccc4)cc13)C(=O)NC2=O`, the IC50 is more than 30000 nM. Consider `COc1ccc2[nH]c3c(-c4ccccc4)nc4c(c3c2c1)C(=O)NC4=O`, for which the midpoint of inhibition, the IC50, lay at 3000 nM. Molecule `COc1cc2[nH]c3c(-c4ccccc4)nc4c(c3c2cc1OC)C(=O)NC4=O` displayed an IC50 of 1000 nM. The molecule `COc1cc2[nH]c3c(-c4ccccc4C)nc4c(c3c2cc1OC)C(=O)NC4=O` yielded a half-maximal inhibitory concentration (IC50) of 1000 nM.

In a further data set the target is T1, Epidermal growth factor receptor.
Description: Inhibition of EGFR derived from human A-431 cell membrane vesicles using copolymer of Glu/Ala/Tyr as substrate by scintillation counting method
In turn, `O=C(CCc1c(SSc2[nH]c3ccccc3c2CCC(=O)Nc2ccccc2)[nH]c2ccccc12)Nc1ccccc1` gave an IC50 of 850 nM.

Test system in a further data set: not listed separately
In words: Antiproliferative activity against mouse Swiss-3T3 cells assessed as cell growth inhibition incubated for 72 hrs by cell counter method. Type of data set: toxicity, cell-based.
Regarding `Cn1c(SSc2c(C(=O)Nc3ccccc3)c3c(O)cccc3n2C)c(C(=O)Nc2ccccc2)c2c(O)cccc21`, the 50% inhibitory concentration (IC50) at 72 h turned out to be 1900 nM.

Test system in a further data set: not listed separately
As to the kind of experiment: Inhibition of v-src (unknown origin).
`NC(Cc1c([Se][Se]c2[nH]c3ccccc3c2CC(N)C(=O)NCc2ccccc2)[nH]c2ccccc12)C(=O)NCc1ccccc1` (stereo unspecified): inhibition was half-maximal at 2000 nM (IC50). Molecule `NC(Cc1c(SSc2[nH]c3ccccc3c2CC(N)C(=O)NCc2ccccc2)[nH]c2ccccc12)C(=O)NCc1ccccc1` (stereo unspecified) displayed a half-maximal inhibitory concentration (IC50) of 7000 nM. `CNC(=O)c1c([Se][Se]c2c(C(=O)NC)c3ccccc3n2C)n(C)c2ccccc12` had an IC50 of 400 nM. `CCN(CC)CCn1c([Se][Se]c2c(C(=O)NC)c3ccccc3n2CCN(CC)CC)c(C(=O)NC)c2ccccc21`: half-maximal inhibition (IC50) was put at 1700 nM. `CN(C)CCNC(=O)c1c([Se][Se]c2c(C(=O)NCCN(C)C)c3ccccc3n2C)n(C)c2ccccc12` displayed an IC50 of 1800 nM.

Take `Cn1c([Se][Se]c2c(C(=O)OC(C)(C)C)c3ccccc3n2C)c(C(=O)OC(C)(C)C)c2ccccc21`: the IC50 stood at 1500 nM. Molecule `CNC(=O)c1c(SSc2c(C(=O)NC)c3ccccc3n2C)n(C)c2ccccc12` came in with an IC50 of 6000 nM.

Test system in the next data set: not listed separately
In words: Inhibition of PDGF-BB-stimulated PDGFR autophosphorylation in mouse Swiss-3T3 cells treated for 2 hrs followed by PDGF-BB stimulation measured after 10 mins by immunoblot analysis. Format: cell-based.
As to `COCC(=O)Oc1ccc2[nH]c(C(=O)c3cc4ccccc4[nH]3)cc2c1`, the midpoint of inhibition, the IC50, lay at 200 nM.

For `Cc1ccc2[nH]c(C(=O)c3cc4ccccc4[nH]3)cc2c1`, half-maximal inhibition (IC50) was put at 7500 nM.

Take `COc1ccc2[nH]c(C(=O)c3cc4ccccc4[nH]3)cc2c1`: the IC50 turned out to be 300 nM.

Molecule `COc1cccc2cc(C(=O)c3cc4ccccc4[nH]3)[nH]c12` gave an IC50 of more than 30000 nM. `O=C(c1cc2ccccc2s1)c1cc2ccccc2s1` had an IC50 of more than 30000 nM. In turn, `CN(C)CCC(=O)Oc1ccc2[nH]c(C(=O)c3cc4ccccc4[nH]3)cc2c1` showed an IC50 of 100 nM. As to `O=C(c1cc2ccccc2[nH]1)c1cc2cc(O)ccc2[nH]1`, the half-maximal inhibitory concentration (IC50) came to 200 nM. On the same count and under the same terms, the figure for `COc1ccc2cc(C(=O)c3cc4ccccc4[nH]3)[nH]c2c1` is 300 nM.

Another data set deals with T1, Epidermal growth factor receptor. In words: Inhibition of EGFR derived from human A-431 cells using copolymer of Glu/Ala/Tyr as substrate by scintillation counting method.
`Cc1ccc2c(c1)c(C(=O)Nc1ccccc1)c(SSc1c(C(=O)Nc3ccccc3)c3cc(C)ccc3n1C)n2C` yielded an IC50 of more than 100000 nM.

The molecule `Cc1ccc2c(C(=O)Nc3ccccc3)c(SSc3c(C(=O)Nc4ccccc4)c4ccc(C)cc4n3C)n(C)c2c1` yielded an IC50 of more than 100000 nM.

`Cn1c(SSc2c(C(=O)Nc3ccccc3)c3c(O)cccc3n2C)c(C(=O)Nc2ccccc2)c2c(O)cccc21` came in with an IC50 of more than 100000 nM.
